Assay results: publication PMC11224403, “Des-acyl ghrelin reduces alcohol intake and alcohol-induced reward in rodents” (Translational Psychiatry, 2024)

Key:
cFOS in NAc and VTA = assay: cFOS-positive cells in NAc and VTA; assay type: in vivo, male rats; conditions: acute DAG, 90 min
Protocol: We therefore explore if DAG influenced the activity of neurons (cFOS) in NAc and VTA. Naïve male rats were treated acutely with vehicle (n = 3) or DAG (n = 3) and were 90 min later perfused. Brains were collected, and stored in 4% paraformaldehyde overnight, and in 25% sucrose until sectioning. Brains were sectioned coronally in 40-μm sections using a microtome. Brain slices of NAc (AP +1.8 mm) and VTA (AP −5.2 mm) were stained for cFOS-DAB, as described elsewhere, visualized by a Nikon light microscope (Nikon Eclipse 90i, Tokyo, Japan). Pictures were captured with a Nikon DS-Fi1 camera (Nikon, Tokyo, Japan). Cell bodies positive for cFOS immunoreactivity (dark brown) were quantified using ImageJ-FIJI (National Institutes of Health, Bethesda, MD), and counted manually by a blinded experimenter.
The obtained data are normally distributed and with equal variance. The data from drinking experiments were analyzed by unpaired t-test or repeated two-way ANOVA. A two-tailed unpaired t-test analyzed the ELISA, ex vivo HPLC-EC, and cFOS data. […] A one-way ANOVA with Bonferroni post hoc tests and unpaired t-test analyzed the locomotor activity and CPP data, respectively. The in vivo microdialysis experiments were evaluated by a repeated two-way ANOVA followed by the Bonferroni post hoc test. […] Data were analyzed with GraphPad Prism version 10.0.2 (GraphPad Software, La Jolla, CA, USA).

dopamine in NAc shell = assay: In vivo microdialysis, dopamine release in NAc shell; set-up: species or system Wistar rats; conditions: n = 8 per group
Source text: Male and female Rcc Han Wistar rats (8–12 weeks old at arrival; Envigo, Horst, Netherlands) were used for the alcohol drinking and locomotor activity experiments as they drink alcohol to intoxicating levels. For in vivo microdialysis studies male Wistar rats (Charles River, Calco, Italy) were used as they display robust dopamine levels in NAc shell after alcohol injection. […] All rodents were allowed to habituate to the animal facility at least one week before they entered an experiment. […] The sample sizes of each experiment were based on previous experience in which statistical significance has been detected. The person who conducted the experiments, and analyzed the collected data was aware of the treatment allocation. Only preset exclusion criteria were used when analyzing the data obtained in attempts to exclude confounding factors in analyzing data. In the alcohol drinking experiments leaking bottles and low alcohol consumption (<3.0 g/kg for males; <3.5 g/kg for females) were preset exclusion criteria. The preset exclusion criterion in the ex vivo HPLC-EC, ELISA, and recombinant cell line experiments was contamination of the sample. Misplaced probes, technical difficulties, and damages to the surgery area were preset exclusion criteria for the in vivo microdialysis experiment. Intra-cage male aggression was the preset exclusion criterion for the locomotor activity and CPP experiments. To minimize tentative confounding factors, the order of treatments was stratified, with treatments being mixed for each animal cage and for each apparatus used as well as balancing the alcohol intake between future treatment groups. […]
The data from drinking experiments were analyzed by unpaired t-test or repeated two-way ANOVA. A two-tailed unpaired t-test analyzed the ELISA, ex vivo HPLC-EC, and cFOS data. […] A one-way ANOVA with Bonferroni post hoc tests and unpaired t-test analyzed the locomotor activity and CPP data, respectively. The in vivo microdialysis experiments were evaluated by a repeated two-way ANOVA followed by the Bonferroni post hoc test.

NET = assay: Transporter inhibition in recombinant cell line, NET; assay type: cell-based, human; conditions: 8.3 µM DAG; recombinant cells, 3 h incubation, fluorescence dye
[1] = test system: feeding and ghrelin-induced responses; conditions: cited from earlier work
Source text: DAG can be found in the plasma after ghrelin is secreted from the gastrointestinal tract and subsequently deacetylated in the serum. […] Based on these findings and given that ghrelin has a prominent role in mediating alcohol-related responses, we hypothesize that DAG decreases such effects in rodents.

Question: For “des-acyl ghrelin (GSSFLSPEHQRVQQRKESKKPPAKLQPR; Ghrelin-28 non-acylated; UniProt Q9UBU3 24-51, looked up) [DAG, non-octanoylated form of ghrelin; purchased from Tocris (printed Tocrise Bioscience), dissolved in 0.9% NaCl]”, which “cFOS-positive cells, VTA” value (cFOS in NAc and VTA; male rats, data not shown) is on record?
Answer: Its value is “Neither did DAG treatment influence cFOS-positive cells in the VTA”.

Question: And the “number of cFOS-positive cells, NAc shell” value (cFOS in NAc and VTA; naïve male rats, n = 3 per group, vehicle 237 ± 13, t4 = 0.60, P = 0.6372)?
Answer: The value was 219 ± 33.

Question: What about the “dopamine in NAc shell, DAG per se” value (dopamine in NAc shell; DAG 1 mg/kg without alcohol) of the same substance?
Answer: Its value is “did not affect dopamine in the NAc shell per se”.

Question: What about the “alcohol-induced dopamine release in NAc shell (effect of DAG)” value (dopamine in NAc shell; male rats (methods), DAG 1 mg/kg plus alcohol vs vehicle-alcohol) of the same substance?
Answer: The value was “suppressed this enhancement (40 min P = 0.0396, 80 min P < 0.0001, 160 min P = 0.0400, 200 min P = 0.0010, 220 min P = 0.0458)”.

Question: And the “inhibition of NET” value (NET)?
Answer: The value was “no inhibition”.

Question: What about the “effects of ghrelin on feeding, gastric emptying, body temperature, glucose and lipid metabolism” value ([1]; ref [30–34]) of the same substance?
Answer: The value was “blocks the effects of ghrelin on feeding, gastric emptying, body temperature, and glucose and lipid metabolism”.

Question: What about the food intake ([1]; ref [32]) of the same substance?
Answer: The food intake was “decrease food intake”.
